According to patent US20060257843A1 (priority 2002, published 2006):
Where “and” joins values, the source holds several entries; their conditions need not be identical. Identical values can stand only once. Entries after “also recorded” stand apart in the source; their conditions may differ. Bridge positions count the residues as written; N and C are the ends. Square brackets hold non-standard residues; d marks the D form. Peptide text beside a SMILES is read from it. Hyp = O=C(O)[C@@H]1C[C@@H](O)CN1

Columns and labels:
[1] = test system: primary cultures of cortex; type: cell-based, rat
[2] = test system: primary cultures of cortex; type: cell-based, rat; remark: listed apart in the source
cardiac myocytes = type: cell-based, rat
[3] = test system: primary cultures of cortical neurons; type: cell-based, rat
[4] = test system: cardiac ventricular myocytes; type: cell-based, rat
[5] = test system: ventricular myocytes, cortex and trachea; type: cell-based, rat
[6] = test system: primary cultures of cortex; type: cell-based, rat; remark: listed apart in the source
anesthetized rat = details: in vivo, iv
[7] = test system: primary cultures of cortex
[8] = test system: primary cultures of ventricular myocytes
[9] = target: Shaker H4 potassium channel (Drosophila melanogaster, UniProt P08510); details: cited from earlier work
Chain of Shaker H4 potassium channel (P08510 whole entry): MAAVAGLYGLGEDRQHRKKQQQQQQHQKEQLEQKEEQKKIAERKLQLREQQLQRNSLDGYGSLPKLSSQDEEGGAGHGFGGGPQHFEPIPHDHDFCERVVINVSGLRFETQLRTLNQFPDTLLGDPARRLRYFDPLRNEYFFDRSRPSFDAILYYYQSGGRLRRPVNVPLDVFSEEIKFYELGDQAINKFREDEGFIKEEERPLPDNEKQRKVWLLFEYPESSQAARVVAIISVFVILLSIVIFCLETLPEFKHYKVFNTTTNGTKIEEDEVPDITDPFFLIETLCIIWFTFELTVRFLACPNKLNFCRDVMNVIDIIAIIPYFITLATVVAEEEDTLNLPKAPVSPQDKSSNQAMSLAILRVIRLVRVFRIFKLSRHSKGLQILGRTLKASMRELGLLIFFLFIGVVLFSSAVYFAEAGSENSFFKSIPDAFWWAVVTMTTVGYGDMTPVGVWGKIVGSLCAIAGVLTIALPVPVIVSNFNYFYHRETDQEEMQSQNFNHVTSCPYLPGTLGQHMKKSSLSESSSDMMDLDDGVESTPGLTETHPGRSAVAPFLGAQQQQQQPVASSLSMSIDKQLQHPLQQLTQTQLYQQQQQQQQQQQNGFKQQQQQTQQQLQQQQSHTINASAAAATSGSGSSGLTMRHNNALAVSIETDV

[10] = test system: primary cortical cultures
[11] = test system: New Zealand White rabbits; details: rabbit, in vivo
canine model of AMI = details: dog, in vivo
Kv1.1 = target: T1, Kv1.1 (Homo sapiens, UniProt Q09470); details: cited from earlier work
T1 construct: host or cells: oocytes
T1 sequence (Q09470 whole entry): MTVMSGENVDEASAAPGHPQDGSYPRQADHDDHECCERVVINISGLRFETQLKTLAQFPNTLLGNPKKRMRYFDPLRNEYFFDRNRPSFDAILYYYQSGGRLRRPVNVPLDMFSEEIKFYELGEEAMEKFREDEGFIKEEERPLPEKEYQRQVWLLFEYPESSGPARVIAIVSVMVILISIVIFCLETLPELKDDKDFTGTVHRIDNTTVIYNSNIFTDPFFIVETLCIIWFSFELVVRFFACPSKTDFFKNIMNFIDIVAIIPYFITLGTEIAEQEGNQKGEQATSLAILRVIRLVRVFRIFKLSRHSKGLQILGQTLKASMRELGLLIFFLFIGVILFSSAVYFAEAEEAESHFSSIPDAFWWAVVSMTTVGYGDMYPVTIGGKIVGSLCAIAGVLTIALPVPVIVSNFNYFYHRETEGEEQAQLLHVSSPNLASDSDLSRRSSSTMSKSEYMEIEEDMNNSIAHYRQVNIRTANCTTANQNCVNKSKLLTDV

Kv1.4 = Kv1.4 (Homo sapiens, UniProt P22459); details: cited from earlier work
Chain of Kv1.4 (P22459 whole entry): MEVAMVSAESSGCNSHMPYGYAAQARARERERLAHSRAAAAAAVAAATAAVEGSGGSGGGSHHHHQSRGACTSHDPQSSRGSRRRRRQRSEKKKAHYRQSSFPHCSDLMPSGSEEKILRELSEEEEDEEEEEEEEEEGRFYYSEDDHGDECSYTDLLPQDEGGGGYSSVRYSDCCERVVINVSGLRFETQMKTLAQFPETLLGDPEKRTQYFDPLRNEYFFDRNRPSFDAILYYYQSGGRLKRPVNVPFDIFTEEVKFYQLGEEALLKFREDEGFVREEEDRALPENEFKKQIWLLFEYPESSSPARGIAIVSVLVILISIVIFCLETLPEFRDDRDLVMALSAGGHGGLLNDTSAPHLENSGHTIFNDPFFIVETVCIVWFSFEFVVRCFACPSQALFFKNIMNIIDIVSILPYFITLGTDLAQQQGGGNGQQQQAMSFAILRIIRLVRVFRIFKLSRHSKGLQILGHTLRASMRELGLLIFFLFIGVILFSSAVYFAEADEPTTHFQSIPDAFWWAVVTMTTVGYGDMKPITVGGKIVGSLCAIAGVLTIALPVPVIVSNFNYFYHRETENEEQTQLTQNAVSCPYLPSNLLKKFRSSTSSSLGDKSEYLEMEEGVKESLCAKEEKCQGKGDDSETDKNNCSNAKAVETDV

Kv1.3 = target: T2, Kv1.3 (Homo sapiens, UniProt P22001); details: cited from earlier work
T2 construct: host or cells: oocytes
T2 sequence (P22001 whole entry): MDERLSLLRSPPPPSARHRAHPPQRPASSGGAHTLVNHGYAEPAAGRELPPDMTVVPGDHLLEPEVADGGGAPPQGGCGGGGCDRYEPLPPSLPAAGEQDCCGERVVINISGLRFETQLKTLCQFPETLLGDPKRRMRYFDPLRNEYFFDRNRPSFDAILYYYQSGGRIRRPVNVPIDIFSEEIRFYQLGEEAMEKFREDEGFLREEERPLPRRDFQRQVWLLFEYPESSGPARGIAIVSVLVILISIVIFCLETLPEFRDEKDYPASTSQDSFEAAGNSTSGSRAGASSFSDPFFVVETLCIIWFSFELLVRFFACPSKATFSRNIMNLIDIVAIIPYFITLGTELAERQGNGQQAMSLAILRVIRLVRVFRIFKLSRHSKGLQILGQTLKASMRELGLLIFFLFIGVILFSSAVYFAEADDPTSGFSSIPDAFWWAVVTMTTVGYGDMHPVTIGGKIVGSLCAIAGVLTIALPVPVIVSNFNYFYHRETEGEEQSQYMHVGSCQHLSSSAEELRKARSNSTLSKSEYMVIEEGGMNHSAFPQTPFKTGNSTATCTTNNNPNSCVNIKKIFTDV

F425G Shaker mutation = F425G Shaker mutation (Drosophila melanogaster, UniProt P08510, F425G); details: cited from earlier work
Chain of F425G Shaker mutation (P08510 whole entry F425G): as the sequence (P08510 whole entry) above, with F425G counted along it

For `CC[C@H](C)[C@@H]1NC(=O)[C@H](CCCNC(=N)N)NC(=O)[C@@H](N)CSSC[C@@H]2NC(=O)[C@@H]3CSSC[C@@H](C(=O)N[C@H](C(=O)O)C(C)C)NC(=O)[C@H](CCCCN)NC(=O)[C@H](CC(N)=O)NC(=O)[C@H](Cc4ccccc4)NC(=O)[C@H](CCCNC(=N)N)NC(=O)[C@H](CC(N)=O)NC(=O)[C@H](CSSC[C@H](NC(=O)[C@H](CCCCN)NC(=O)[C@H](CCC(N)=O)NC(=O)[C@H](CC(N)=O)NC(=O)[C@@H]4C[C@@H](O)CN4C1=O)C(=O)N[C@@H](Cc1ccccc1)C(=O)N[C@@H](CCC(N)=O)C(=O)N[C@@H](Cc1c[nH]cn1)C(=O)N[C@@H](CC(C)C)C(=O)N[C@@H](CC(=O)O)C(=O)N[C@@H](CC(=O)O)C(=O)N3)NC(=O)[C@H](CCCCN)NC(=O)[C@H](CCCNC(=N)N)NC(=O)[C@H](CO)NC2=O` [κ-PVIIA, Cys-Xaa1-Ile-Xaa2-Asn-Gln-Xaa3-Cys-Xaa4-Gln-Xaa5-Leu-Asp-Asp-Cys-Cys-Ser-Xaa1-Xaa3-Cys-Asn-Xaa1-Xaa4-Asn-Xaa3-Cys-Val] (H-CRI[Hyp]NQKCFQHLDDCCSRKCNRFNKCV-OH; disulfide 1-16, 8-20, 15-26), the “intracellular K+ concentration (PBFI fluorescence)” value [1] was “reduction”, the “current corrected for cell capacitance” value [2] was 2.4±0.7 pA/pf and the “current evoked by κ-PVIIA” value [2] was 26.2±6.2 pA. For the same molecule, the “reversal of κ-PVIIA-induced inward current” value [2] was about −20 mV, the “sensitivity of evoked currents to KATP antagonists” value [2] was “sensitive” and the “current corrected for cell capacitance” value (cardiac myocytes) was 4.6±0.4 pA/pf. The “current evoked by κ-PVIIA” value (cardiac myocytes) was 87.7±5.9 pA, the “experimentally determined Ek (reversal potential of evoked current)” value (cardiac myocytes) was −23 mV and the “reversal of κ-PVIIA-induced inward current” value (cardiac myocytes) was about −20 mV. For the same molecule, the “sensitivity of evoked currents to KATP antagonists” value (cardiac myocytes) was “sensitive”, the “change in intracellular calcium (Fluo-3 fluorescence)” value [3] was −2.15±0.95% and −8.8±3.9% and the “protection against hypoxia-induced depolarization” value [4] was “prevented any hypoxia-induced changes in membrane potential; also recorded: protective effect”. The “protective effect against hypoxia induced depolarization (initial screen, Example 10)” value [4] was “strong protective effect”, the “effect on infarct size” value (isolated rabbit hearts) was “reduced the infarct size; also recorded: no effect” and the “protection against hypoxia-induced changes in intracellular calcium” value [5] was “able to provide protection against hypoxia”. The initial glutamate-induced depolarization [6] was “prevents the initial glutamate-induced depolarization”, the “effect on blood pressure” value (anesthetized rat) was “no effect” and the “effect on heart rate” value (anesthetized rat) was “no effect”. For the same molecule, the EC50 [7] was 0.0008 pM, the EC50 [8] was 0.0009 pM and the “block of the Drosophila H4 shaker K+ channel” value [9] was “block”. The “degree of glutamate-induced excitotoxicity (delayed cellular death)” value (cortical cells) was “effectively reduces the degree of glutamate-induced excitotoxicity in a dose-dependant manner”, the “protection against delayed cytotoxic effects of glutamate” value (cortical cells) was “very effective protection” and the “protease activity (cytotoxicity)” value [10] was “no detectable protease activity”. The hemodynamic effect [11] was “without any hemodynamic effect”, the lowest effective dose [11] was 0.01 mg/kg and the “infarct size as % of risk zone, protection” value ([11]; iv) was “equally as protective”. For the same molecule, the “drop in blood pressure normally seen upon reperfusion” value (canine model of AMI) was “prevented the drop in blood pressure”, the lowest effective dose (canine model of AMI) was 0.1 mg/kg and the “effect on infarct size” value (canine model of AMI; iv) was “No significant effect”. For the same molecule, the “reduction of infarct size” value (canine model of AMI; iv) was “approximately 60%”, the “activity on Kv1.1” value (Kv1.1) was “no effects; also recorded: no detectable activity” and the “activity on Kv1.4” value (Kv1.4) was “no detectable activity”. The “effects on Kv1.3” value (Kv1.3) was “no effects” and the “effect of F425G Shaker mutation on κ-PVIIA sensitivity” value (F425G Shaker mutation) was “abolishes”.
